In article PMC4438233, “Antibacterial effects of Traditional Chinese Medicine monomers against Streptococcus pneumoniae via inhibiting pneumococcal histidine kinase (VicK)” (Frontiers in Microbiology, 2015):
pIC50: −log10 of the molar value. Like-named read-outs stand apart in the source and are kept apart here.

Key:
[1] = biological target: T1, full-length VicK protein (Streptococcus pneumoniae, UniProt Q8DPL8); experiment: Inhibition assay for ATPase activity of VicK (Kinase-Glo Luminescent Kinase Assay); type: biochemical; conditions: IC50 (inhibition of VicK ATPase activity / autophosphorylation), 6 μg VicK, 5 μM ATP
T1 construct: 6 His; made in house
Procedure: The inhibitory activities of the Chinese medicine monomers for the ATPase activity of the full-length VicK protein were evaluated using the Kinase-Glo™Luminescent Kinase Assay (Promega, Madison, USA). Briefly, 6 μg VicK protein was pre-incubated with a series of dilution of compounds in the reaction buffer at 37°C for 30 min. 5 μM ATP was added and incubated for another 30 min. Kinase-Glo™Reagent was also added to detect the remaining ATP recorded from luminescence measurements (RLU). In parallel, the VicK protein with no addition of compounds was used as a control, and the mixture with compounds excluding the VicK protein served as another control. The rate of protein phosphorylation (Rp) inhibition by the compounds was calculated from Equation (1).
(1) Rp=1−RLU(compound+ATP+Reagent) −RLU(compound+ATP+vick+Reagent)/RLU(ATP +Reagent)−RLU(ATP+vick+Reagent)×100%
The half maximal inhibitory concentration (IC50), which is the concentration of inhibition of 50% VicK protein autophosphorylation, was determined by GraphPad Prism 5 (Qin et al., [2006]).

[2] = test system: S. pneumoniae NCTC7466; experiment: MIC against S. pneumoniae NCTC7466 (D39); type: cell-based; conditions: Streptococcus pneumoniae, S. pneumoniae NCTC7466 (D39), read-out: MIC
Procedure: (§1) Minimum inhibitory concentration (MIC) assays for the antibacterial activities of the compounds were performed according to the standard […] method of the Clinical and Laboratory Standards Institute of America. MIC testing of drug-resistant S. pneumoniae, drug-resistant S. aureus, streptococci and antimicrobial combination was also performed using the same method. Briefly, the drugs were serially diluted 2-fold into eight wells with C+Y medium, yielding final concentrations ranging from […]. Then 10^6 CFU bacteria were added to each well. Inoculated medium containing 1% DMSO served as a bacterial growth control, whereas uninoculated medium served as a sterility control. The plates were incubated at 37°C for 12–16 h. […] The experiment was repeated three times.

[3] = test system: pneumococcal strains; experiment: MIC against clinical pneumococcal strains (penicillin susceptible, intermediate, resistant); type: cell-based, Streptococcus pneumoniae; conditions: for MIC50 / MIC90: Streptococcus pneumoniae; for MIC50: read-out: MIC of pneumococcal strains, MIC50; for MIC90: read-out: MIC of pneumococcal strains, MIC90
Procedure: as §1

[4] = test system: S. pyogenes; experiment: MIC against S. pyogenes; type: cell-based; conditions: Streptococcus pyogenes; S. pyogenes clinical isolate; 10^6 CFU/ml; read-out: MIC
Procedure: as §1

[5] = test system: S. mitis; experiment: MIC against S. mitis; type: cell-based; conditions: Streptococcus mitis; S. mitis clinical isolate; 10^6 CFU/ml; read-out: MIC
Procedure: as §1

[6] = test system: S. mutans; experiment: MIC against S. mutans; type: cell-based; conditions: Streptococcus mutans; S. mutans clinical isolate; 10^6 CFU/ml; read-out: MIC
Procedure: as §1

[7] = test system: S. pseudopneumoniae; experiment: MIC against S. pseudopneumoniae; type: cell-based; conditions: Streptococcus pseudopneumoniae; S. pseudopneumoniae clinical isolate; 10^6 CFU/ml; read-out: MIC
Procedure: as §1

[8] = Cytotoxicity assay (MTT); type: cell-based; conditions: African green monkey, Vero cells
Procedure: The cytotoxicity of the drugs to Vero cells (African green monkey kidney cells) was detected as previously described (Huang et al., [2012]) with minor modifications. In 96-well cell culture plates, the cells (~10^3 cells per well) were exposed to the serially diluted drugs for 48 h. Then, relative cell numbers were assayed by co-incubation with 3-(4, 5-dimethylthiazol-2-yl)-2, 5-diphenyltetrazolium bromide for 4 h at 37°C in 5% CO2. Purple formazan salts were dissolved with DMSO after incubation. The absorbance of each well was measured at 595 nm and then converted to percentages of the control (cells treated with 1% DMSO). The concentration of the derivatives with 50% cytotoxicity for Vero cells (CC50) was calculated using GraphPad Prism 5 (San Diego, CA).

[9] = test system: S. pneumoniae NCTC7466; experiment: Mouse sepsis model, survival time; type: in vivo, BALB/c mice; conditions: i.p. infection 1 × 10^3 CFU; drug i.p. thrice a day for 3 d; untreated control 28.8 ± 1.25
Procedure: Female BALB/c mice (12–15 per group) aged 4–6 weeks were used to evaluate the antimicrobial effects of the compounds in vivo. In sepsis models, the mice were intraperitoneally infected with 100 μL S. pneumoniae NCTC7466 strain suspension (1 × 10^3 CFU). […] Two control groups were injected with 100 μL 1% DMSO (dissolved the drugs, negative control) or PEN (0.42 mg/kg/d, positive control) following the same injection route. The result was expressed as cumulative survival times following 7 d of observation.

[10] = test system: Penicillin-resistant S. pneumoniae strains; experiment: Checkerboard test with penicillin against penicillin-resistant S. pneumoniae; type: cell-based, Streptococcus pneumoniae; conditions: Streptococcus pneumoniae, agent alone, read-out: MIC, Alone
Procedure: as §1
The antimicrobial effects of different combinations of two antimicrobial agents were assayed using the checkerboard test (Bajaksouzian et al., [1997]). Each experiment was repeated thrice. The in vitro interaction between the five drugs with PEN was quantified by the fractional inhibitory concentration (FIC). The FIC index (FICI) was calculated using the following formula:
(§2) (2) FIC=FICA+FICB=[A]/MICA+[B]/MICB
(§3) where [A] and [B] are the concentrations of drugs A and B, respectively; MICA and FICA are the MIC and FIC of drug A for the organism, respectively; and MICB, and FICB are the MIC and FIC of drug B for the organism, respectively. The FIC index obtained was interpreted as follows: =0.5, synergy; FIC > 2.0, antagonism (Gupta and Kohli, [2003]).

[11] = test system: S. pneumoniae; experiment: Checkerboard test with erythromycin or tetracycline against S. pneumoniae; type: cell-based, Streptococcus pneumoniae
Procedure: The antimicrobial effects of different combinations of two antimicrobial agents were assayed using the checkerboard test (Bajaksouzian et al., [1997]). Each experiment was repeated thrice. […] The FIC index (FICI) was calculated using the following formula:
as §2, §3

[12] = Penicillin intermediate (n = 12)

T1 sequence (Q8DPL8 whole entry): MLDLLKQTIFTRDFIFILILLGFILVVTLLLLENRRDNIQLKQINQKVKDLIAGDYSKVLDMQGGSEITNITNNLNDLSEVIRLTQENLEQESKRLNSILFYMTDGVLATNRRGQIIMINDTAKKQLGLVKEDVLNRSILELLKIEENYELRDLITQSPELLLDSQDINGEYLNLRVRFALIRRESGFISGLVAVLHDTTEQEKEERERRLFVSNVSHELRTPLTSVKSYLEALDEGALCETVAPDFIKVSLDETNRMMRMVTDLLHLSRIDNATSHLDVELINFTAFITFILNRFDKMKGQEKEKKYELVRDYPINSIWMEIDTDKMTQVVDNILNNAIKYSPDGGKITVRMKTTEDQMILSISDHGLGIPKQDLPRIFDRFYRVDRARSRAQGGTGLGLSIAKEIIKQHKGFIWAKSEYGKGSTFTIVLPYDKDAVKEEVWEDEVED

## CCCCCCCC=NNc1ccc([N+](=O)[O-])cc1[N+](=O)[O-] [Compound 2, Octanal 2,4-dinitrophenylhydrazone]
[1]
  pIC50: 5.27
[1]; value in parentheses
  pIC50: 5.27
[2]
  MIC: 38.5 µg/mL
[2]; value in parentheses
  MIC: 125 µM
[3]; [12]
  MIC of pneumococcal strains, Range: 38 to 154 µg/mL
  MIC50: 77 µg/mL
  MIC90: 154 µg/mL
[3]; Penicillin resistant (n = 15)
  MIC of pneumococcal strains, Range: 77 to 616 µg/mL
  MIC50: 308 µg/mL
  MIC90: 616 µg/mL
[3]; Penicillin susceptible (n = 7)
  MIC of pneumococcal strains, Range: 76 to 152 µg/mL
  MIC50: 152 µg/mL
  MIC90: 152 µg/mL
[4]
  MIC: 308 µg/mL
[5]
  MIC: 308 µg/mL
[6]
  MIC: 616 µg/mL
[7]
  MIC: 154 µg/mL
[8]
  CC50 at 48 h: > 4000 µM
[9]
  Mean survival of mice ± SEM: 42.1 ± 4.1 h
[10]; strain 652336
  MIC: 154 µg/mL
[10]; strain 736007
  MIC: 154 µg/mL
[10]; strain 8364981
  MIC: 77 µg/mL
[10]; strain 12092624
  MIC: 154 µg/mL
[11]; in combination with Erythromycin
  FICI: 2
[11]; in combination with Tetracycline
  FICI: 0.75
